# Measured values reported in publication PMC10154249, “Unique progerin C-terminal peptide ameliorates Hutchinson–Gilford progeria syndrome phenotype by rescuing BUBR1” (Nature Aging, 2023).
# How the values were obtained:
# [1] = test system: BubR1 in Lmna^G609G/G609G mice; assay: IHC of BubR1 in tissues of Lmna^G609G/G609G mice; format: in vivo, mouse; parameters: key to BubR1 IHC score: intensity score (0-3) × positive-cell score (0-4); range 0-12; details: 20 mg kg^–1 i.p. every other day
# Protocol: For UPCP injection, 14-day-old Lmna^G609G/G609G mice were injected intraperitoneally with either PBS or UPCP (20 mg kg^–1, every other day) and wild-type mice were injected with PBS. All phenotypic analyses were performed after 12 weeks of treatment with UPCP. Bodyweight and lifespan were monitored after UPCP treatment. The survival rate was analyzed by the Kaplan–Meier method. We only included mice that were of sufficient bodyweight at the start of the experiment, typically at least 80% of the average littermate weight of the same sex and genotype. All animals meeting criteria for inclusion were then divided randomly into three groups according to genotype (Lmna^+/+, Lmna^G609G/G609G-Mock and Lmna^G609G/G609G-UPCP).
# For histological analyses, mice of the indicated genotypes were perfused with PBS, then with 4% paraformaldehyde (PFA). Whole organs were incubated in 4% PFA at 4 °C for 16 h. All samples were paraffin embedded and sectioning by Servicebio. Subsequently, the tissues were deparaffinized and rehydrated before hematoxylin-eosin (HE) or Masson staining or immunohistochemistry (IHC). HE staining was performed using an HE Kit (Absin, catalog no. abs9217), and Masson staining was performed using Masson’s Trichrome Stain Kit (Absin, catalog no. abs9347) according to the manufacturer’s instructions. The thickness of the layers or the areas of fibrosis in the tissues were calculated using ImageJ software by a blinded investigator. For IHC, the sections were completed by the Servicebio. The images were acquired by a microscope (Leica DMi8) and analyzed with Leica Application Suite X v.3.6.0.24 (Leica). For BubR1, cytoplasmic staining in cells was scored on the intensity of staining and the proportion of positive cells by a blinded investigator. The intensity of the staining was graded as 0 (negative, no color), 1 (low positive, light yellow), 2 (positive, brown yellow) or 3 (high positive, brown), and the number of positive cells was graded as 0 (<5%), 1 (5–25%), 2 (25–50%), 3 (51–75%) or 4 (>75%). The final score was defined as staining number score multiplied by staining color score. For lamin B1, p21 or IL-6, the proportion of positive cells was used to quantify the expression of protein in tissues by a blinded investigator.
# IMR90 cells = assay: Etoposide-, Ras- and H2O2-induced early stage senescence of IMR90 cells; format: cell-based, human; details: IMR90, UPCP 6 μM, another 5 days; SA-β-gal, Ki67, Western blot
# Text: HGPS is an extremely rare congenital genetic disease, and its treatments are still under theoretical research. […] Also, to investigate the role of UPCP on other senescence models, we used Etoposide, Ras or H2O2 to induce senescence of IMR90 cells, and added UPCP to the cells treated with the drugs mentioned above when the cells just entered early stage senescence. […] Further work aimed at obtaining UPCPs with stronger stability, longer half-life and optimized physical structures are under planning. Therefore, UPCP may have broad application prospects in the treatment of HGPS.
# SA-β-gal positive cells was calculated (c). Scale bars: 200 μm. d. Western blot analysis of Lamin B1, CyclinA2, IL-6 and p21 in senescent IMR90 cells with the indicated treatments. e,f.
# Immunofluorescence analysis of Ki67 in IMR90 cells with the indicated treatment. Representative […]
# ≥ 200 cells. Scale bars: 50 μm. For bar and line graphs, data are presented as mean ± SD.
# Statistical significance was determined in c and f using two-tailed unpaired Student’s t-test.
# Supplementary Data Figure 2. UPCP delays Etoposide, Ras and H2O2 induced early stage cellular senescence. a. […]
# and the percentage of the Ki67 positive cells was calculated (f), n ≥ 200 cells. […]
# For bar and line graphs, data are presented as mean ± SD. Statistical significance was determined inc and f using two-tailed unpaired Student’s t-test.
# HGADFN003 cells = assay: γH2AX-53BP1 foci in HGADFN003 cells; format: cell-based, human
# Protocol: Immunofluorescence was performed as described previously. Cells were plated on cover slips in 12-well plates, left overnight before the treatment. Cells were fixed in 1% formaldehyde in culture medium for 10 min at 37 °C and permeabilized with 0.2% Triton X-100 in PBS for 10 min at room temperature. Cells were washed twice in PBS and blocked for 1 h with 5% BSA in PBS and then incubated with primary antibodies at 4 °C overnight, washed three times in PBS and incubated with secondary antibodies for 1 h at room temperature. Cell nuclei were counterstained with a 500 nM concentration of 4,6-diamidino-2-phenylindole (DAPI) (Sigma). Images were acquired by a fluorescence microscope (OLYMPUS FV-1000, Carl Zeiss LSM880 or Leica DMi8) and analyzed with software NIS-Elements AR v.5.0.1 (Nikon), FLUOVIEW v.4.2b (OLYMPUS), ZEN v.2.3 SP1 (Carl Zeiss) and Leica Application Suite X v.3.6.0.24 (Leica). Cells were quantified by investigators who were blinded to the identity of the analyzed cell.
substance,measurement,setting,value
"H-YGRKKRRQRRRYNLRSRTVLCGTCGQPADKASASGSGAQSPQNCSIM-OH (cysteines drawn unpaired) [UPCP, unique progerin C-terminal peptide]",BubR1 IHC score,"[1]; aorta, No. 1",7
same,BubR1 IHC score,"[1]; aorta, No. 2",8.4
same,BubR1 IHC score,"[1]; aorta, No. 3",12
same,BubR1 IHC score,"[1]; aorta, No. 4",8.6
same,BubR1 IHC score,"[1]; aorta, No. 5",8
same,BubR1 IHC score,"[1]; aorta, No. 6",6
same,BubR1 IHC score,"[1]; lung, No. 1",1
same,BubR1 IHC score,"[1]; lung, No. 2",2
same,BubR1 IHC score,"[1]; lung, No. 3",2.4
same,BubR1 IHC score,"[1]; lung, No. 4",1.2
same,BubR1 IHC score,"[1]; lung, No. 5",1.4
same,BubR1 IHC score,"[1]; lung, No. 6",1.2
same,BubR1 IHC score,"[1]; skin, No. 1",10.4
same,BubR1 IHC score,"[1]; skin, No. 2",8
same,BubR1 IHC score,"[1]; skin, No. 3",5.6
same,BubR1 IHC score,"[1]; skin, No. 4",7.2
same,BubR1 IHC score,"[1]; skin, No. 5",12
same,BubR1 IHC score,"[1]; skin, No. 6",12
same,BubR1 expression,"[1]; skin, esophagus, lung and spleen",increased the expression of BubR1
same,BubR1 IHC score,"[1]; spleen, No. 1",7.6
same,BubR1 IHC score,"[1]; spleen, No. 2",6.8
same,BubR1 IHC score,"[1]; spleen, No. 3",6
same,BubR1 IHC score,"[1]; spleen, No. 4",7.8
same,BubR1 IHC score,"[1]; spleen, No. 5",7.6
same,BubR1 IHC score,"[1]; spleen, No. 6",7.2
same,"etoposide-, ras- and H2O2-induced early stage cellular senescence",IMR90 cells,"delayed etoposide-, ras- and H2O2-induced early stage cellular senescence modestly"
same,γH2AX and 53BP1 positive cells (/Mock),"HGADFN003 cells; HGADFN003, relative to Mock = 100, replicate 1",45%
same,γH2AX and 53BP1 positive cells (/Mock),"HGADFN003 cells; HGADFN003, relative to Mock = 100, replicate 2",55%
same,γH2AX and 53BP1 positive cells (/Mock),"HGADFN003 cells; HGADFN003, relative to Mock = 100, replicate 3",50%
same,γH2AX-53BP1 foci,HGADFN003 cells; HGPS fibroblasts,lower level of γH2AX-53BP1 foci
